In patent US9295673B2, “Combination of mTOR inhibitors and P13-kinase inhibitors, and uses thereof” (Intellikine LLC, priority 2011, dated 2016):

What follows are compounds tested against PI3K γ (Homo sapiens, UniProt P48736) (assay: PI 3-Kinase (human) HTRF assay, PI3K γ). Settings: read-out: PI3K γ IC50; Table 2.
Chain of PI3K γ (P48736 whole entry): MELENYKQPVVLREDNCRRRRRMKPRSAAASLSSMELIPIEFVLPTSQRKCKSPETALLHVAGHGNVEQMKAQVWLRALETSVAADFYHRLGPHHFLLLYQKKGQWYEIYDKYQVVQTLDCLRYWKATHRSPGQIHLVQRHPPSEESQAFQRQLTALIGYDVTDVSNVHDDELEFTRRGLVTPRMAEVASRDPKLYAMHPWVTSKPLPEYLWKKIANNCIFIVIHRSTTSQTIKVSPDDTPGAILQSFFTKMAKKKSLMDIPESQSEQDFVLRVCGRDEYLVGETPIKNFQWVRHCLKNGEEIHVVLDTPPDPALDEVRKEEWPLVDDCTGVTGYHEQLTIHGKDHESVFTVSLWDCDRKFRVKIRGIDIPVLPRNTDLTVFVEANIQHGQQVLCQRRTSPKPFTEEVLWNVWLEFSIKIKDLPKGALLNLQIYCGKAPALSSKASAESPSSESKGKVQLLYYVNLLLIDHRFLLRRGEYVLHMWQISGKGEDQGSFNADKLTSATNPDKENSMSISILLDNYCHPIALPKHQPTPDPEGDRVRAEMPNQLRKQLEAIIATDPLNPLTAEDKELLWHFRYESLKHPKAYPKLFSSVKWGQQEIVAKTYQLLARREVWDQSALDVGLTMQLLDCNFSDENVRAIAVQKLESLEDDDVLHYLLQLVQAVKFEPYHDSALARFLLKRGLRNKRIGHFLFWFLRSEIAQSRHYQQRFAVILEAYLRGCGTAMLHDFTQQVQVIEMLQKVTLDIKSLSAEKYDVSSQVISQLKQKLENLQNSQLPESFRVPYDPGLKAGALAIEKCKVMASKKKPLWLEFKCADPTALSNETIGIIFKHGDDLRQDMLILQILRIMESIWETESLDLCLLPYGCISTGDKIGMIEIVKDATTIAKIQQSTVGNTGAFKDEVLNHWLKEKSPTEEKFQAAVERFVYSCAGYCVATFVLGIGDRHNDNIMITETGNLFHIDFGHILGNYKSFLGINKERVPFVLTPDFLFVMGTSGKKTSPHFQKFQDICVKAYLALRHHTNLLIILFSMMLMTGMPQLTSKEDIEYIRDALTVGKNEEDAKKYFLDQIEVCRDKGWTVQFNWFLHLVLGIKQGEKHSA

| SMILES | IC50 |
| --- | --- |
| CC(C)n1nc(-c2cc3cc(O)c(Cl)cc3[nH]2)c2c(N)ncnc21 [Compound 32] | > 0.5 µM |
| COc1ccc(Cl)c2cc(-c3nn(C4CCOCC4)c4ncnc(N)c34)[nH]c12 [Compound 61] | > 0.5 µM |
| CNC(=O)Cn1nc(-c2cc3cc(O)ccc3[nH]2)c2c(N)ncnc21 [Compound 35] | > 0.5 µM |
| CN1CCN(C2CCC(n3nc(-c4cc5cc(O)ccc5[nH]4)c4c(N)ncnc43)CC2)CC1 (stereo not shown) [Compound 58] | > 0.5 µM |
| CC(C)N1CCC(n2nc(-c3cc4cc(O)cc(Cl)c4[nH]3)c3c(N)ncnc32)CC1 [Compound 56] | > 0.5 µM |
| Nc1ncnc2c1c(-c1cc3cc(O)ccc3[nH]1)nn2C1CCC(N2CCOCC2)CC1 (stereo not shown) [Compound 57] | > 0.5 µM |
| COc1ccc2cc(-c3nn(C4CCOCC4)c4ncnc(N)c34)[nH]c2c1 [Compound 59] | > 0.5 µM |
| Nc1ncnc2c1c(-c1cc3ccc(O)cc3[nH]1)nn2C1CCOCC1 [Compound 60] | 0.05 to 0.1 µM |
| COCCn1nc(-c2cc3cc(O)ccc3[nH]2)c2c(N)ncnc21 [Compound 40] | > 0.5 µM |
| Nc1ncnc2c1c(-c1cc3cc(O)ccc3[nH]1)nn2C1CC(O)C1 (stereo not shown) [Compound 54] | > 0.5 µM |
| Nc1ncnc2c1c(-c1cc3cc(O)ccc3[nH]1)nn2C1CC(=O)C1 [Compound 53] | > 0.5 µM |
| Nc1ncnc2c1c(-c1cc3cccc(O)c3[nH]1)nn2C1CCCC1 [Compound 36] | 0.05 to 0.1 µM |

Each compound was assayed against PI3K δ (Homo sapiens, UniProt O00329) (assay: PI 3-Kinase (human) HTRF assay, PI3K δ). Settings: read-out: PI3K δ IC50.
Chain of PI3K δ (O00329 whole entry): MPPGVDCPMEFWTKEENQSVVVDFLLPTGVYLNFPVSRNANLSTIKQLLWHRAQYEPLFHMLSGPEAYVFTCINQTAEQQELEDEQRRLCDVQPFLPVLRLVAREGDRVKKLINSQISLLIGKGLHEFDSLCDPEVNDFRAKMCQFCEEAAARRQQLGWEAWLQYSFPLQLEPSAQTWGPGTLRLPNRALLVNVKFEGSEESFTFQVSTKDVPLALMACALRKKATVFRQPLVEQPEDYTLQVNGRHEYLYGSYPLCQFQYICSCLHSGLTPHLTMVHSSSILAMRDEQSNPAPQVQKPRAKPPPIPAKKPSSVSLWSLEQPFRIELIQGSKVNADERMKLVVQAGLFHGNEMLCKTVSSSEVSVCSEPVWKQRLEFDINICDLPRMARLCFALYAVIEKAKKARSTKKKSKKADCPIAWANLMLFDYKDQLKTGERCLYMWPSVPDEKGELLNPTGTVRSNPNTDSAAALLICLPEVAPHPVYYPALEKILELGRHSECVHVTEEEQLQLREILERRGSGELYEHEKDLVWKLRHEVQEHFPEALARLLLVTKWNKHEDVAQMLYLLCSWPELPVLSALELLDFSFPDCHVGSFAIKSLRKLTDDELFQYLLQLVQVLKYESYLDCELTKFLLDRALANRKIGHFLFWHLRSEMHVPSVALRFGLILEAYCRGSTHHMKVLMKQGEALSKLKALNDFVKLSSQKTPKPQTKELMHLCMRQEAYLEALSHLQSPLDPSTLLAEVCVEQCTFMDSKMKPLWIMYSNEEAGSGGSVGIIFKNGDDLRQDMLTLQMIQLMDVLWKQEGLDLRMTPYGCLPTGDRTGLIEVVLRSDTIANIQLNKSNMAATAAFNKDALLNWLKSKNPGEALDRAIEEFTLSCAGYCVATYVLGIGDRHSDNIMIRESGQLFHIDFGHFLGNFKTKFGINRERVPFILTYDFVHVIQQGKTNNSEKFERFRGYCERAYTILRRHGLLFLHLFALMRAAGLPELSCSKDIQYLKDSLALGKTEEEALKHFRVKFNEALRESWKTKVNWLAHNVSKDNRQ
Chain of PI3K δ (P27986 whole entry partner): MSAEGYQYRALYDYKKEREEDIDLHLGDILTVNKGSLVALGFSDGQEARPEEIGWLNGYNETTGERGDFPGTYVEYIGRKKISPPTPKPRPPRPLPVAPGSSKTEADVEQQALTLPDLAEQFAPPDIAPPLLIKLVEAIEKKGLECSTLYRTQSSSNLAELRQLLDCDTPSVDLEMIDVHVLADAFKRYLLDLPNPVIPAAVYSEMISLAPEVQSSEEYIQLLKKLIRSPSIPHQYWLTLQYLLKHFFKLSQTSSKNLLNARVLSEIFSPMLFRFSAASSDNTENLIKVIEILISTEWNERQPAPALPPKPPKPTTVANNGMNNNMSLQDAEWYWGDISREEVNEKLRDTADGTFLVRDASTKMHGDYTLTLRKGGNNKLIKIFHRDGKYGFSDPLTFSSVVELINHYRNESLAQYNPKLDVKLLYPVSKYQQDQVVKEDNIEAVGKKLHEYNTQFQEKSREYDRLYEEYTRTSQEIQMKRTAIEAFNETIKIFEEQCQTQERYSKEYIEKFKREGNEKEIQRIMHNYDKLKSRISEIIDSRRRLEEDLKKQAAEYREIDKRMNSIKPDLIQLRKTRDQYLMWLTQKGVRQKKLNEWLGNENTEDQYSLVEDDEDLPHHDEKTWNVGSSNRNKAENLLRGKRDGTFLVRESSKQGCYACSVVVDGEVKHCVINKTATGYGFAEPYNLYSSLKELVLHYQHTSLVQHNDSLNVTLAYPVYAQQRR
Protocol: (§1) An exemplary system is PI 3-Kinase (human) HTRF™ Assay from Upstate. […] Briefly, the assay is a time resolved FRET assay that indirectly measures PIP3 product formed by the activity of a PI3-K. The kinase reaction is performed in a microtitre plate (e.g., a 384 well microtitre plate). The total reaction volume is approximately 20 ul per well. In the first step, each well receives 2 ul of test compound in 20% dimethylsulphoxide resulting in a 2% DMSO final concentration. […] The plate is sealed and incubated for 15 minutes at room temperature. […] The plate is sealed and incubated for 1 hour at room temperature. The reaction is stopped by adding 5 ul of Stop Solution per well and then 5 ul of Detection Mix is added per well. The plate is sealed, incubated for 1 hour at room temperature, and then read on an appropriate plate reader. Data is analyzed and IC50s are generated using GraphPad Prism 5.

| SMILES | IC50 |
| --- | --- |
| CC(C)n1nc(-c2cc3cc(O)c(Cl)cc3[nH]2)c2c(N)ncnc21 [Compound 32] | > 0.5 µM |
| COc1ccc(Cl)c2cc(-c3nn(C4CCOCC4)c4ncnc(N)c34)[nH]c12 [Compound 61] | > 0.5 µM |
| CNC(=O)Cn1nc(-c2cc3cc(O)ccc3[nH]2)c2c(N)ncnc21 [Compound 35] | > 0.5 µM |
| COCCn1nc(-c2cc3cc(O)ccc3[nH]2)c2c(N)ncnc21 [Compound 40] | > 0.5 µM |

Same assay, conditions: read-out: PI3K δ IC50; Table 2

| SMILES | IC50 |
| --- | --- |
| Nc1ncnc2c1c(-c1cc3cccc(O)c3[nH]1)nn2C1CCCC1 [Compound 36] | 0.1 to 0.5 µM |

These compounds were tested against PI3K β (Homo sapiens, UniProt P42338) (assay: PI 3-Kinase (human) HTRF assay, PI3K β). Settings: read-out: PI3K β IC50; Table 2.
Chain of PI3K β (P42338 whole entry): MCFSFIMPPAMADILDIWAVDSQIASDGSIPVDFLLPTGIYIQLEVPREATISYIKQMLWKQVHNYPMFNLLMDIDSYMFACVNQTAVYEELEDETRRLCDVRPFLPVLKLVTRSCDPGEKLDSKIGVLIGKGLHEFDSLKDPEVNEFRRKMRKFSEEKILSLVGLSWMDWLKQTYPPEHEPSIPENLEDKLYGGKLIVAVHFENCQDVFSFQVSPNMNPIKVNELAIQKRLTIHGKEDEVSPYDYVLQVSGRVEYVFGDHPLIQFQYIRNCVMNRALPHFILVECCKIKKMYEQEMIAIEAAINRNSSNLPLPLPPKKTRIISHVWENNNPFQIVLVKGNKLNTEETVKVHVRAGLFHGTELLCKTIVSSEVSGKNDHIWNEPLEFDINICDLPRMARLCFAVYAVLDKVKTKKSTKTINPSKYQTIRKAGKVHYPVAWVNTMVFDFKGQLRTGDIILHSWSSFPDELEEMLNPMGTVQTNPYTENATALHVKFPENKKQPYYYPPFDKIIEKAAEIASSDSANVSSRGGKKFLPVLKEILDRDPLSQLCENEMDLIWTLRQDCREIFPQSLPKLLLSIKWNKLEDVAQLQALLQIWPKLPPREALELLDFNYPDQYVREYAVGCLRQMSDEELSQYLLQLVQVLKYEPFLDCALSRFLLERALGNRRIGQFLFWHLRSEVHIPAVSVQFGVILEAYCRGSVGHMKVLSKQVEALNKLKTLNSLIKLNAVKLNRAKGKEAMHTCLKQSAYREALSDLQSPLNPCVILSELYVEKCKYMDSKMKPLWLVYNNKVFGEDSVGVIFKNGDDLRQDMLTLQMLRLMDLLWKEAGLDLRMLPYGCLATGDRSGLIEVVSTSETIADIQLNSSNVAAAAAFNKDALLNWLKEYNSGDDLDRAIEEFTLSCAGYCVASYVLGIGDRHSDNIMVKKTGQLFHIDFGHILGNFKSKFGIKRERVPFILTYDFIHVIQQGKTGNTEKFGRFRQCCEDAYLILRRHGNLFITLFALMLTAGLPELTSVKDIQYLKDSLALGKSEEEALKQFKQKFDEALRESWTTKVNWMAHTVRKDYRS
Chain of PI3K β (P27986 whole entry partner): as the sequence (P27986 whole entry partner) above

| SMILES | IC50 |
| --- | --- |
| COc1ccc(Cl)c2cc(-c3nn(C4CCOCC4)c4ncnc(N)c34)[nH]c12 [Compound 61] | > 0.5 µM |
| CN1CCN(C2CCC(n3nc(-c4cc5cc(O)ccc5[nH]4)c4c(N)ncnc43)CC2)CC1 (stereo not shown) [Compound 58] | > 0.5 µM |
| CC(C)N1CCC(n2nc(-c3cc4cc(O)cc(Cl)c4[nH]3)c3c(N)ncnc32)CC1 [Compound 56] | > 0.5 µM |
| Nc1ncnc2c1c(-c1cc3cc(O)ccc3[nH]1)nn2C1CCC(N2CCOCC2)CC1 (stereo not shown) [Compound 57] | > 0.5 µM |
| COc1ccc2cc(-c3nn(C4CCOCC4)c4ncnc(N)c34)[nH]c2c1 [Compound 59] | > 0.5 µM |
| Nc1ncnc2c1c(-c1cc3ccc(O)cc3[nH]1)nn2C1CCOCC1 [Compound 60] | > 0.5 µM |
| Nc1ncnc2c1c(-c1cc3cc(O)ccc3[nH]1)nn2C1CC(O)C1 (stereo not shown) [Compound 54] | > 0.5 µM |
| Nc1ncnc2c1c(-c1cc3cc(O)ccc3[nH]1)nn2C1CC(=O)C1 [Compound 53] | > 0.5 µM |

The compounds below were run against PI3K α (Homo sapiens, UniProt P42336) (assay: PI 3-Kinase (human) HTRF assay, PI3K α). Settings: read-out: PI3K α IC50.
Chain of PI3K α (P42336 whole entry): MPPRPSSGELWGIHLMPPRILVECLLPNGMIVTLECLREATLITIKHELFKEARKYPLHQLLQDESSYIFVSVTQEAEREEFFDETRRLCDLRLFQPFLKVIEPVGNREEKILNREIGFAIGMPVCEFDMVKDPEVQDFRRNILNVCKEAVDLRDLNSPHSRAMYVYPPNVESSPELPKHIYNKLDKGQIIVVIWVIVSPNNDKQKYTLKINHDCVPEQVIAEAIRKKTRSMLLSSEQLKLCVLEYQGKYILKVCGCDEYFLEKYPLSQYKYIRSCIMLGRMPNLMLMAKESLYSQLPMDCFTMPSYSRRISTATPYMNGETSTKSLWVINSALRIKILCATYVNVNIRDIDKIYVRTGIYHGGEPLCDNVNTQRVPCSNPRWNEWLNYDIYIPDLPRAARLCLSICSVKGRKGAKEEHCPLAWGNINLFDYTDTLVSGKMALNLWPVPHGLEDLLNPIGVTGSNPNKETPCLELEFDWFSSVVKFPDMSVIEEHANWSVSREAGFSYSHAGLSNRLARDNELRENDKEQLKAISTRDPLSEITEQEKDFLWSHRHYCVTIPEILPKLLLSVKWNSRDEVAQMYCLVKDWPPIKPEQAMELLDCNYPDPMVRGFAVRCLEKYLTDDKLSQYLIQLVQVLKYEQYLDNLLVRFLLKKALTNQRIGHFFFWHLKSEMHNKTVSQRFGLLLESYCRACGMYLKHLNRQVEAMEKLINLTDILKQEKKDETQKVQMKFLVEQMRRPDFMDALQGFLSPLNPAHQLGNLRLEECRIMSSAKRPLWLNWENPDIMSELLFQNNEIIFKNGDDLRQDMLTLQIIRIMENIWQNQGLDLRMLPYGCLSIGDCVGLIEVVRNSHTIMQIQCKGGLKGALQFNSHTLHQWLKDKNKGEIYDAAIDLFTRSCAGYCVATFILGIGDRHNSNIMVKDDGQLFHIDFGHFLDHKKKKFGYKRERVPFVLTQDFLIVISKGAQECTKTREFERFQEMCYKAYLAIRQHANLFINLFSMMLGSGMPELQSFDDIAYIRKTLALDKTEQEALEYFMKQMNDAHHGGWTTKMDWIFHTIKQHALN
Chain of PI3K α (P27986 whole entry partner): as the sequence (P27986 whole entry partner) above
Protocol: as §1

| SMILES | IC50 |
| --- | --- |
| CC(C)n1nc(-c2cc3cc(O)c(Cl)cc3[nH]2)c2c(N)ncnc21 [Compound 32] | > 0.5 µM |
| CNC(=O)Cn1nc(-c2cc3cc(O)ccc3[nH]2)c2c(N)ncnc21 [Compound 35] | > 0.5 µM |
| CN1CCN(C2CCC(n3nc(-c4cc5cc(O)ccc5[nH]4)c4c(N)ncnc43)CC2)CC1 (stereo not shown) [Compound 58] | > 0.5 µM |
| CC(C)N1CCC(n2nc(-c3cc4cc(O)cc(Cl)c4[nH]3)c3c(N)ncnc32)CC1 [Compound 56] | > 0.5 µM |
| Nc1ncnc2c1c(-c1cc3cc(O)ccc3[nH]1)nn2C1CC(=O)C1 [Compound 53] | > 0.5 µM |

Same assay, conditions: read-out: PI3K α IC50; Table 2

| SMILES | IC50 |
| --- | --- |
| COc1ccc(Cl)c2cc(-c3nn(C4CCOCC4)c4ncnc(N)c34)[nH]c12 [Compound 61] | > 0.5 µM |
| Nc1ncnc2c1c(-c1cc3cc(O)ccc3[nH]1)nn2C1CCC(N2CCOCC2)CC1 (stereo not shown) [Compound 57] | > 0.5 µM |
| COc1ccc2cc(-c3nn(C4CCOCC4)c4ncnc(N)c34)[nH]c2c1 [Compound 59] | > 0.5 µM |
| Nc1ncnc2c1c(-c1cc3ccc(O)cc3[nH]1)nn2C1CCOCC1 [Compound 60] | > 0.5 µM |
| COCCn1nc(-c2cc3cc(O)ccc3[nH]2)c2c(N)ncnc21 [Compound 40] | > 0.5 µM |
| Nc1ncnc2c1c(-c1cc3cc(O)ccc3[nH]1)nn2C1CC(O)C1 (stereo not shown) [Compound 54] | > 0.5 µM |
| Nc1ncnc2c1c(-c1cc3cccc(O)c3[nH]1)nn2C1CCCC1 [Compound 36] | > 0.5 µM |

What follows are compounds tested against T1, mTOR (Homo sapiens, UniProt P42345) (assay: mTOR kinase inhibition assay (radiometric or LanthaScreen TR-FRET)). Settings: Table 2; read-out: mTORC IC50.
T1 construct: purchased Invitrogen
Assay type: biochemical
Protocol: The compounds described herein can be tested against recombinant mTOR (Invitrogen) in an assay containing 50 mM HEPES, pH 7.5, 1 mM EGTA, 10 mM MgCl2, 2.5 mM, 0.01% Tween, 10 μM ATP (2.5 μCi of μ-32P-ATP), and 3 mg/mL BSA. Rat recombinant PHAS-1/4EBP1 (Calbiochem; 2 mg/mL) is used as a substrate. Reactions are terminated by spotting onto nitrocellulose, which is washed with 1M NaC1/1% phosphoric acid (approximately 6 times, 5-10 minutes each). Sheets are dried and the transferred radioactivity quantitated by phosphorimaging.
For instance, one can use Invitrogen's LanthaScreen™ Kinase assay to test the inhibitors of mTOR disclosed herein. This assay is a time resolved FRET platform that measures the phosphorylation of GFP labeled 4EBP1 by mTOR kinase. The kinase reaction is performed in a white 384 well microtitre plate. The total reaction volume is 20 ul per well and the reaction buffer composition is 50 mM HEPES pH7.5, 0.01% Polysorbate 20, 1 mM EGTA, 10 mM MnCl2, and 2 mM DTT. In the first step, each well receives 2 ul of test compound in 20% dimethylsulphoxide resulting in a 2% DMSO final concentration. […] The plate is sealed and incubated for 1 hour at room temperature. […] The plate is sealed, incubated for 1 hour at room temperature, and then read on a plate reader set up for LanthaScreen™ TR-FRET. Data is analyzed and IC50s are generated using GraphPad Prism 5.

| SMILES | IC50 |
| --- | --- |
| CC(C)n1nc(-c2cc3cc(O)c(Cl)cc3[nH]2)c2c(N)ncnc21 [Compound 32] | < 0.5 µM |
| COc1ccc(Cl)c2cc(-c3nn(C4CCOCC4)c4ncnc(N)c34)[nH]c12 [Compound 61] | < 0.025 µM |
| CNC(=O)Cn1nc(-c2cc3cc(O)ccc3[nH]2)c2c(N)ncnc21 [Compound 35] | > 0.5 µM |
| CN1CCN(C2CCC(n3nc(-c4cc5cc(O)ccc5[nH]4)c4c(N)ncnc43)CC2)CC1 (stereo not shown) [Compound 58] | > 0.5 µM |
| CC(C)N1CCC(n2nc(-c3cc4cc(O)cc(Cl)c4[nH]3)c3c(N)ncnc32)CC1 [Compound 56] | > 0.5 µM |
| Nc1ncnc2c1c(-c1cc3cc(O)ccc3[nH]1)nn2C1CCC(N2CCOCC2)CC1 (stereo not shown) [Compound 57] | < 0.025 µM |
| COc1ccc2cc(-c3nn(C4CCOCC4)c4ncnc(N)c34)[nH]c2c1 [Compound 59] | > 0.5 µM |
| Nc1ncnc2c1c(-c1cc3ccc(O)cc3[nH]1)nn2C1CCOCC1 [Compound 60] | < 0.1 µM |
| COCCn1nc(-c2cc3cc(O)ccc3[nH]2)c2c(N)ncnc21 [Compound 40] | < 0.1 µM |
| Nc1ncnc2c1c(-c1cc3cc(O)ccc3[nH]1)nn2C1CC(O)C1 (stereo not shown) [Compound 54] | < 0.025 µM |
| Nc1ncnc2c1c(-c1cc3cc(O)ccc3[nH]1)nn2C1CC(=O)C1 [Compound 53] | < 0.1 µM |
| Nc1ncnc2c1c(-c1cc3cccc(O)c3[nH]1)nn2C1CCCC1 [Compound 36] | < 0.01 µM |
